Data on one compound can be found in PMC11396751, “Design, Synthesis, and Anticancer Activity of Novel Enmein-Type Diterpenoid Derivatives Targeting the PI3K/Akt/mTOR Signaling Pathway” (Molecules, 2024).

What all share (type): cell-based, human
Test [1] deals with A549 cells. In words: Apoptosis rate, Annexin V-FITC/PI, flow cytometry. The note with it: 48 h. As to the method:
To further confirm the capacity of 7h to induce apoptosis in cancer cells, A549 cells were treated with 7h, detected using Annexin V-FITC/PI staining, and the apoptosis rate was detected by flow cytometry.
A549 cells were inoculated into 6-well plates and attached via cell adhesion. Then, gradient concentrations (0, 2, 4, and 8 µM) of 7h was added and co-incubated for 48 h. The cells were gathered and prepared as cell suspensions according to the method described in Section 4.2.3. The cell suspension was treated with Annexin V-FITC/PI staining solution, and the data were gathered using a flow cytometer (FACS Calibur, BD, Milpitas, CA, USA) and analyzed using Flow Jo software. Three attempts were performed for each treatment to eliminate experimental bias.
Background: In flow cytometry, cells or beads pass a laser one at a time.

The test system of test [2] is A549 cells. In words: MTT anti-proliferative assay, A549. As to the method: A series of novel enmein-type diterpenoid derivatives, 5a–m, were synthesized by introducing a side chain containing a carbamate moiety at the C-6 position of compound 4. The anticancer activities of 5a–m were tested against three human cancer cell lines and one human normal cell line by MTT assay.
Human non-small cell lung cancer cell lines (A549), human liver cancer cell lines (HepG2), human breast cancer cell lines (MCF-7), and human normal cell lines (L-02) were purchased from the cell bank of the Chinese Academy of Sciences. All cells were placed in RPMI-1640 medium (added 10% fetal bovine serum, […]) and cultured in an aseptic environment with 5% CO2 at 37 °C.
All derivatives were evaluated for their anti-proliferative activities against three cancer cell lines and one normal cell line by MTT assay. The cells in the logarithmic growth phase were inoculated into 96-well plates (3 × 10^3 cells/well) and incubated for 48 h in a sterile environment with 5% CO2 at 37 °C to make them attach via cell adhesion; then, the cells were co-incubated with target compounds for 48 h. After that, MTT solution (10 µL/well) was added to the cell culture medium to continue incubation for 4 h, following which the medium was replaced with DMSO (150 µL/well). The absorbance values at 490 nm were determined using an enzyme meter (Safire 2, Tecan, Männedorf, Switzerland) and further converted to half-inhibitory concentration values of these compounds.

The subject of test [3] is A549 cells. In words: ROS content, H2DCFDA staining. The note with it: A549, 2, 4 and 8 µM, 48 h, flow cytometry. On the procedure: Reactive oxygen species (ROS) are secondary metabolites of cells and are closely linked to the regulation of multiple biological activities. Elevated intracellular ROS levels are thought to be a hallmark of apoptosis. To determine whether 7h could affect the ROS content in cancer cells, the A549 cells were treated with different concentrations (0, 2, 4, and 8 µM) of 7h and then stained with H2DCFDA.
Flow cytometry was used to detect changes in intracellular reactive oxygen species content, and the results are shown in Figure 5b,c.
A549 cells were inoculated into 24-well plates and attached via cell adhesion. Then, gradient concentrations (0, 2, 4, and 8 µM) of 7h were added and the cells were co-incubated for 48 h. The cells were cleaned with ice-cold PBS, stained with H2DCFDA, mixed, and incubated in cells for 20 min in darkness at 25 °C. The apoptosis morphology of the cells in each group was observed and photographed using a laser confocal microscope (LSM710, Zeiss, Oberkochen, Germany).
A549 cells were inoculated into 6-well plates and attached via cell adhesion. Then, gradient concentrations (0, 2, 4, and 8 µM) of 7h were added and the cells were co-incubated for 48 h. […] The experimental data were gathered using flow cytometry (FACS Calibur, BD, Milpitas, CA, USA) and analyzed using Flow Jo software. […]

Test [4] relates to A549 cells. Briefly: Apoptosis morphology, AO/EB double staining. The note with it: A549, 2, 4 and 8 µM, 48 h. On the procedure: To explore whether compound 7h could induce apoptosis in cancer cells, A549 cells were treated with different concentrations (0, 2, 4, and 8 µM) of 7h and then stained with AO/EB double staining. In the blank control group, normal cells were stained green with AO staining solution with intact nuclei.
A549 cells were inoculated into 24-well plates and attached via cell adhesion. Then, gradient concentrations (0, 2, 4, and 8 µM) of 7h were added and co-incubated for 48 h. The cells were cleaned with ice-cold PBS, stained with AO/EB, mixed, and then incubated in cells for 5 min in darkness at 25 °C. The apoptosis morphology of the cells in each group was observed and photographed using a laser confocal microscope (LSM710, Zeiss, Oberkochen, Germany).

[5] abbreviates: A549, highest concentration (8 µM per Figure 4b).

The IC50 is the point on the concentration scale where inhibition reaches its midpoint. A high value points to weaker potency in that assay. `C=C1C(=O)C23C(=O)OC45CCC(C)(C)C6C(OC(=O)CCC(=O)N7CCC(c8noc9cc(F)ccc89)CC7)OCC64C2CCC1C3O5` (single isomer, unassigned; ent-6) [Compound 7h, ent-6β,14α-Dihydroxy-(1,7–1,14)-epoxy-7,15-dioxo-6,20-hemiketal-6,7-seco-16-kaurene-6β-yl 4-(4-(6-fluorobenzo[d]isoxazol-3-yl)piperidin-1-yl)-4-oxobutanoate]: in the test on A549 cells [1] (setting [5]), the late apoptosis stood at 41.8% and the “percentage of total apoptosis” value worked out at 58.00%. The “percentage of total apoptosis” value in the test with A549 cells [1] (A549, lowest concentration (2 µM per Figure 4b)) amounted to 5.38%. Besides, the “fold better than parental compound 4 (A549 IC50)” value in the test on A549 cells [2] (A549 cells) is on record as 11.03 fold. It took 2160 ± 1400 nM to reach half-maximal inhibition with A549 cells [2] (Homo sapiens, A549, MTT, 48 h, means ± SD of three experiments) (IC50). Moreover, in the test with A549 cells [3], the “intracellular ROS content” value is “increased significantly in a dose-dependent manner”. Moreover, in the test with A549 cells [4], the “apoptosis morphology (AO/EB)” value was “generated large amounts of apoptotic cells”.
